Test results as given in article PMC8067737, “Synthesis and Biological Evaluation of Coumarin-Linked 4-Anilinomethyl-1,2,3-Triazoles as Potent Inhibitors of Carbonic Anhydrases IX and XIII Involved in Tumorigenesis” (Metabolites, 2021).
Read-outs that look alike come from different tables or passages of the source.

Columns and labels:
hCA I = hCA I (Homo sapiens, UniProt P00915); assay: CA catalyzed CO2 hydration, stopped flow assay, hCA I
Source text: (§1) An SX.18V-R Applied Photophysics (Oxford, UK) stopped flow instrument has been used to assay the CA catalyzed CO2 hydration activity [26]. […] The inhibition constants were obtained by non-linear least squares methods using the Cheng-Prusoff equation, as reported earlier, and represent the mean from at least three different determinations.

hCA II = hCA II (Homo sapiens, UniProt P00918); assay: CA catalyzed CO2 hydration, stopped flow assay, hCA II
Source text: as §1

hCA IX = hCA IX (Homo sapiens, UniProt Q16790); assay: CA catalyzed CO2 hydration, stopped flow assay, hCA IX; settings: recombinant enzyme, stopped flow technique, mean from 3 different assays, errors ±5–10%
Source text: as §1

hCA XIII = hCA XIII (Homo sapiens, UniProt Q8N1Q1); assay: CA catalyzed CO2 hydration, stopped flow assay, hCA XIII; settings: Ki (nM) hCA XIII, recombinant enzyme; stopped flow technique; mean from 3 different assays, errors ±5–10%
Chain of hCA XIII (Q8N1Q1 whole entry): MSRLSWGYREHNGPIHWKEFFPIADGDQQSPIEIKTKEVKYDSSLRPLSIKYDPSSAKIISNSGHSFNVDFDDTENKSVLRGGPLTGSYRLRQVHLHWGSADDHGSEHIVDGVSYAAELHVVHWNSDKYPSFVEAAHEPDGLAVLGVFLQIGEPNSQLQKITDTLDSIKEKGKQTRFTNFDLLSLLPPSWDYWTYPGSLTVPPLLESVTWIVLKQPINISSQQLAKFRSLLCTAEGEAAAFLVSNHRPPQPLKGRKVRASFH
Source text: as §1

Chain of hCA I (P00915 whole entry): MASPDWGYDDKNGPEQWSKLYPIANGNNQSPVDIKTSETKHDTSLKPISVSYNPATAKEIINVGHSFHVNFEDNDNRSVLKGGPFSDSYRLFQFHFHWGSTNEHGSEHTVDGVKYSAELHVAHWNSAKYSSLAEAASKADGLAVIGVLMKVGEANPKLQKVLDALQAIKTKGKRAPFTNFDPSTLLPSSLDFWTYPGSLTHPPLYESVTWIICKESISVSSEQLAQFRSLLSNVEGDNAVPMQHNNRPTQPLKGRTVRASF

SMILES | melting point | Ki (hCA I) | Ki (hCA II) | Ki (hCA IX; Ki (nM) hCA IX) | Ki (hCA XIII) | Ki (hCA IX; read-out: Ki (nM) hCA IX)
O=c1ccc2cc(-n3cc(CNc4cccc(C(F)(F)F)c4)nn3)ccc2o1 [Compound 6k] | 246 to 248 °C | > 50 µM | > 50 µM | 69.1 nM | 6430 nM | 
O=c1ccc2cc(-n3cc(CNc4ccc(F)cc4)nn3)ccc2o1 [Compound 6l, 6-(4-(((4-fluorophenyl)amino)methyl)-1H-1,2,3-triazol-1-yl)-2H-chromen-2-one] | 210 to 212 °C | > 50 µM | > 50 µM | 86.1 nM | 840 nM | 
Cc1cccc(NCc2cn(-c3ccc4oc(=O)ccc4c3)nn2)c1 [Compound 6m, 6-(4-((m-tolylamino)methyl)-1H-1,2,3-triazol-1-yl)-2H-chromen-2-one] | 220 to 223 °C | > 50 µM | > 50 µM | 80.1 nM | 795 nM | 
Cc1cc(C)cc(NCc2cn(-c3ccc4oc(=O)ccc4c3)nn2)c1 [Compound 6n, 6-(4-(((3,5-dimethylphenyl)amino)methyl)-1H-1,2,3-triazol-1-yl)-2H-chromen-2-one] | 191 to 194 °C | > 50 µM | > 50 µM | 89.3 nM | 703 nM | 
O=c1ccc2cc(-n3cc(CNc4cccc(Cl)c4)nn3)ccc2o1 [Compound 6o, 6-(4-(((3-chlorophenyl)amino)methyl)-1H-1,2,3-triazol-1-yl)-2H-chromen-2-one] | 134 to 137 °C | > 50 µM | > 50 µM | 92.7 nM | 95.4 nM | 
O=c1ccc2cc(-n3cc(CNc4ccccc4I)nn3)ccc2o1 [Compound 6p, 6-(4-(((2-iodophenyl)amino)methyl)-1H-1,2,3-triazol-1-yl)-2H-chromen-2-one] | 165 to 167 °C | > 50 µM | > 50 µM | 574 nM | 594 nM | 
O=c1ccc2cc(-n3cc(CNc4ccc(Cl)cc4[N+](=O)[O-])nn3)ccc2o1 [Compound 6q, 6-(4-(((4-chloro-2-nitrophenyl)amino)methyl)-1H-1,2,3-triazol-1-yl)-2H-chromen-2-one] | 213 to 215 °C | > 50 µM | > 50 µM | 96.4 nM | 96.7 nM | 
Cc1cccc(NCc2cn(-c3ccc4oc(=O)ccc4c3)nn2)c1C [Compound 6r, 6-(4-(((2,3-dimethylphenyl)amino)methyl)-1H-1,2,3-triazol-1-yl)-2H-chromen-2-one] | 220 to 222 °C | > 50 µM | > 50 µM | 462 nM | 550 nM | 
O=c1ccc2cc(-n3cc(CNc4cc(F)cc(F)c4)nn3)ccc2o1 [Compound 6s, 6-(4-(((3,5-difluorophenyl)amino)methyl)-1H-1,2,3-triazol-1-yl)-2H-chromen-2-one] | 204 to 206 °C | > 50 µM | > 50 µM | 90.9 nM | 664 nM | 
O=c1ccc2cc(-n3cc(CNc4ccccc4F)nn3)ccc2o1 [Compound 6t, 6-(4-(((2-fluorophenyl)amino)methyl)-1H-1,2,3-triazol-1-yl)-2H-chromen-2-one] | 230 to 232 °C | > 50 µM | > 50 µM | 643 nM | 6030 nM | 

Further lines, results first:

melting point | Ki (hCA I) | Ki (hCA II) | Ki (hCA IX; Ki (nM) hCA IX) | Ki (hCA XIII) | Ki (hCA IX; read-out: Ki (nM) hCA IX) | SMILES
150 to 152 °C | > 50 µM | > 50 µM | 48.4 nM | 92.6 nM |  | Cc1ccc(NCc2cn(-c3ccc4oc(=O)ccc4c3)nn2)cc1 [Compound 6a, 6-(4-((p-tolylamino)methyl)-1H-1,2,3-triazol-1-yl)-2H-chromen-2-one]
159 to 161 °C | > 50 µM | > 50 µM | 60.8 nM | 90.1 nM |  | O=c1ccc2cc(-n3cc(CNc4ccccc4)nn3)ccc2o1 [Compound 6b, 6-(4-((phenylamino)methyl)-1H-1,2,3-triazol-1-yl)-2H-chromen-2-one]
140 to 142 °C | > 50 µM | > 50 µM | 73.3 nM | 950 nM |  | COc1ccc(NCc2cn(-c3ccc4oc(=O)ccc4c3)nn2)cc1 [Compound 6c, 6-(4-(((4-methoxyphenyl)amino)methyl)-1H-1,2,3-triazol-1-yl)-2H-chromen-2-one]
136 to 138 °C | > 50 µM | > 50 µM | 152 nM | 898 nM |  | O=c1ccc2cc(-n3cc(CNc4ccc(Cl)cc4)nn3)ccc2o1 [Compound 6d, 6-(4-(((4-chlorophenyl)amino)methyl)-1H-1,2,3-triazol-1-yl)-2H-chromen-2-one]
 | > 50 µM | > 50 µM | < 50 nM | 883 nM | 36.3 nM | O=c1ccc2cc(-n3cc(CNc4ccc(Br)cc4)nn3)ccc2o1 [Compound 6e, 6-(4-(((4-bromophenyl)amino)methyl)-1H-1,2,3-triazol-1-yl)-2H-chromen-2-one]
152 to 155 °C | > 50 µM | > 50 µM | 45 nM | 8150 nM |  | CC(C)c1ccc(NCc2cn(-c3ccc4oc(=O)ccc4c3)nn2)cc1 [Compound 6f, 6-(4-(((4-isopropylphenyl)amino)methyl)-1H-1,2,3-triazol-1-yl)-2H-chromen-2-one]
157 to 159 °C | > 50 µM | > 50 µM | 64.8 nM | 903 nM |  | Cc1cc(C)c(NCc2cn(-c3ccc4oc(=O)ccc4c3)nn2)c(C)c1 [Compound 6g, 6-(4-((mesitylamino)methyl)-1H-1,2,3-triazol-1-yl)-2H-chromen-2-one]
172 to 174 °C | > 50 µM | > 50 µM | 73 nM | 905 nM |  | O=c1ccc2cc(-n3cc(CNc4ccc(Oc5ccccc5)cc4)nn3)ccc2o1 [Compound 6h, 6-(4-(((4-phenoxyphenyl)amino)methyl)-1H-1,2,3-triazol-1-yl)-2H-chromen-2-one]
230 to 234 °C | > 50 µM | > 50 µM | 85.7 nM | 896 nM |  | O=c1ccc2cc(-n3cc(CNc4cccc([N+](=O)[O-])c4)nn3)ccc2o1 [Compound 6i, 6-(4-(((3-nitrophenyl)amino)methyl)-1H-1,2,3-triazol-1-yl)-2H-chromen-2-one]
133 to 136 °C | > 50 µM | > 50 µM | 305 nM | 91.8 nM |  | O=c1ccc2cc(-n3cc(CNc4cccc(Br)c4)nn3)ccc2o1 [Compound 6j, 6-(4-(((3-bromophenyl)amino)methyl)-1H-1,2,3-triazol-1-yl)-2H-chromen-2-one]
